Among the test systems are BT-549 breast; MOLT-4 leukemia; SK-MEL-5 melanoma; SK-MEL-2 melanoma; SW-620 colon; NCI-H460 lung; U251 CNS; HCC-2998 colon; PC-3 prostate; HL-60(TB) leukemia.
Common to all, as to assay: inhibition of tumour cell growth, NCI panel, 48 h

In PubChem BioAssay (NCI) one finds GI50 and TGI data, which are given here for eight molecules.

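Method: 48-hour compound exposure of cells in 96-well plates, five concentrations, linear interpolation of endpoints. GI50 marks 50% less growth. TGI: concentration producing complete growth inhibition.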

As to `Oc1ccc(-c2nc3ccccc3s2)cc1CN(Cc1ccccn1)Cc1ccccn1`, the GI50 with BT-549 breast was 1830 nM; in the experiment on MOLT-4 leukemia, 1.42 µM; with SK-MEL-5 melanoma, 556 nM; with SK-MEL-2 melanoma, 2.5 µM; in the experiment on SW-620 colon, 1060 nM; in the experiment on NCI-H460 lung it was 0.228 µM. Moreover, the GI50 in the experiment with U251 CNS is 0.76 µM; with HCC-2998 colon it was 3.23 µM; with PC-3 prostate it was 1090 nM; in the experiment on HL-60(TB) leukemia it was 2140 nM. Besides, the TGI in the experiment on BT-549 breast was 15.6 µM; in the experiment on MOLT-4 leukemia, 13.9 µM; in the experiment with SK-MEL-5 melanoma, 2270 nM; in the experiment with SK-MEL-2 melanoma it was 9.69 µM; in the experiment on SW-620 colon, 14.7 µM; with NCI-H460 lung, 10.5 µM. The TGI in the experiment on U251 CNS was 17.6 µM; in the experiment on HCC-2998 colon, 17 µM; with PC-3 prostate, 21.8 µM; with HL-60(TB) leukemia, 13.3 µM.

On to `C[As](C)SCC(COC(=O)C(Cl)c1ccccc1)OC(=O)C(Cl)c1ccccc1` (stereo not drawn), for which the GI50 in the experiment on BT-549 breast was 2680 nM; in the experiment on MOLT-4 leukemia, 0.49 µM; in the experiment with SK-MEL-5 melanoma, 305 nM; in the experiment on SW-620 colon it was 491 nM; in the experiment on NCI-H460 lung, 9.03 µM; with U251 CNS, 3.42 µM. The GI50 in the experiment with HCC-2998 colon was 1.72 µM; in the experiment on PC-3 prostate it was 740 nM; in the experiment on HL-60(TB) leukemia it was 418 nM. For the same molecule, the TGI in the experiment on BT-549 breast amounted to 14.3 µM; in the experiment with SK-MEL-5 melanoma it was 1120 nM; with SW-620 colon it was 28.2 µM; in the experiment with NCI-H460 lung, 33.6 µM; with U251 CNS, 31.6 µM; with HCC-2998 colon it was 4.75 µM. Besides, the TGI in the experiment on PC-3 prostate came out at 19.4 µM.

For `C[C@@]12CCC[C@@](C)(C(=O)O)C1CC[C@]13C[C@@](O)(CO)[C@](O)(CCC12)C3` (stereo partly drawn), the GI50 with BT-549 breast is greater than 100000 nM; in the experiment on MOLT-4 leukemia, greater than 100 µM; in the experiment on SK-MEL-5 melanoma it was greater than 100000 nM; in the experiment with SK-MEL-2 melanoma, greater than 100 µM; in the experiment on SW-620 colon, greater than 100000 nM; with NCI-H460 lung, greater than 100 µM. Besides, the GI50 was greater than 100 µM with U251 CNS, greater than 100 µM in the experiment on HCC-2998 colon, greater than 100000 nM in the experiment on PC-3 prostate and greater than 100000 nM in the experiment with HL-60(TB) leukemia. For the same molecule, the TGI with BT-549 breast was greater than 100 µM; in the experiment on MOLT-4 leukemia, greater than 100 µM; in the experiment on SK-MEL-5 melanoma it was greater than 100000 nM; in the experiment on SK-MEL-2 melanoma it was greater than 100 µM; with SW-620 colon it was greater than 100 µM; with NCI-H460 lung, greater than 100 µM. Besides, the TGI in the experiment on U251 CNS, in the experiment on HCC-2998 colon, in the experiment on PC-3 prostate and in the experiment on HL-60(TB) leukemia was greater than 100 µM throughout.

As for `C/C1=C/C(=O)O[C@@H]2C[C@@H](CC[C@H](C)/C=C\C=C\CC1)O[C@@](O)([C@@H]1CSC(=O)N1)C2`, the TGI with BT-549 breast was greater than 2.59 µM; in the experiment on MOLT-4 leukemia, greater than 10 µM; in the experiment with SK-MEL-5 melanoma, greater than 2760 nM; in the experiment with SK-MEL-2 melanoma, greater than 10 µM; with NCI-H460 lung it was greater than 10 µM; with U251 CNS, greater than 10 µM. Besides, the TGI in the experiment with HCC-2998 colon, in the experiment with PC-3 prostate and with HL-60(TB) leukemia was greater than 10 µM each time.

As to `CC(C)=CCC[C@](C)(O)[C@H]1CC[C@]2(C)[C@@H]1CC[C@@H]1[C@@]3(C)CC/C(=N/O)C(C)(C)[C@@H]3CC[C@]12C`, the GI50 with BT-549 breast is 27400 nM; in the experiment with MOLT-4 leukemia, 10.1 µM; in the experiment on SK-MEL-5 melanoma, 19400 nM; in the experiment on SK-MEL-2 melanoma, 15.3 µM; in the experiment with SW-620 colon, 6980 nM; in the experiment with NCI-H460 lung, 5.54 µM. Also, the GI50 was 12.8 µM in the experiment on U251 CNS, 12.9 µM with HCC-2998 colon, 7870 nM with PC-3 prostate and 8690 nM in the experiment with HL-60(TB) leukemia. In addition, the TGI with BT-549 breast is greater than 100 µM; in the experiment with MOLT-4 leukemia it was greater than 100 µM; in the experiment with SK-MEL-5 melanoma it was greater than 100000 nM; in the experiment with SK-MEL-2 melanoma, 60.5 µM; with SW-620 colon, greater than 100 µM; in the experiment on NCI-H460 lung, greater than 100 µM. For the same molecule, the TGI with U251 CNS is 49.4 µM; with HCC-2998 colon it was 50.8 µM; in the experiment with PC-3 prostate, 35.9 µM; in the experiment with HL-60(TB) leukemia it was greater than 100 µM.

Regarding `O=Nc1ccc(NO)c2ccccc12`, the GI50 was 15700 nM in the experiment on BT-549 breast; 26.6 µM in the experiment with MOLT-4 leukemia; 11700 nM in the experiment with SK-MEL-5 melanoma; 18.3 µM in the experiment on SK-MEL-2 melanoma; 3870 nM in the experiment on SW-620 colon; 21.7 µM with NCI-H460 lung. Also, the GI50 in the experiment with U251 CNS is 13.1 µM; in the experiment on HCC-2998 colon it was 17.4 µM; in the experiment with PC-3 prostate, 2440 nM; in the experiment with HL-60(TB) leukemia it was 3140 nM. Besides, the TGI in the experiment with BT-549 breast amounted to 29.4 µM; with MOLT-4 leukemia, 88.1 µM; in the experiment on SK-MEL-5 melanoma, 24200 nM; in the experiment on SK-MEL-2 melanoma it was 34.4 µM; in the experiment with SW-620 colon, 21.5 µM; with NCI-H460 lung, 51.3 µM. Moreover, the TGI amounted to 26.1 µM in the experiment with U251 CNS, 31.7 µM with HCC-2998 colon, 13.2 µM with PC-3 prostate and 7.56 µM in the experiment with HL-60(TB) leukemia.

For the molecule `CCC(=C/[C@H](C)C/C=C/C(C)=C/[C@@H](C)C(=O)[C@@H](C)[C@H](O)[C@@H](C)CC)/C=C/[C@@H]1OC(=O)C=C[C@H]1C`, the GI50 is less than 10 nM in the experiment on BT-549 breast; less than 10 nM in the experiment with SK-MEL-5 melanoma; less than 0.01 µM with SK-MEL-2 melanoma; less than 10 nM with SW-620 colon; less than 0.01 µM with U251 CNS; less than 0.01 µM in the experiment with HCC-2998 colon. The GI50 in the experiment with PC-3 prostate and with HL-60(TB) leukemia was less than 10 nM each time. The TGI in the experiment on BT-549 breast was 1.75 µM; in the experiment on SK-MEL-5 melanoma, less than 10 nM; in the experiment with SK-MEL-2 melanoma it was less than 0.01 µM; in the experiment on SW-620 colon it was 1.43 µM; with HCC-2998 colon, less than 0.01 µM; in the experiment with PC-3 prostate, 1.52 µM. Besides, the TGI in the experiment on HL-60(TB) leukemia is less than 0.01 µM.

For the molecule `NCCCCCCCn1c2c(c3ccccc3c1=O)C(=O)c1ccccc1-2`, the GI50 with BT-549 breast was 1700 nM; in the experiment on SK-MEL-5 melanoma, 1450 nM; with SK-MEL-2 melanoma, 2.33 µM; in the experiment with SW-620 colon, 1140 nM; in the experiment with NCI-H460 lung it was 0.478 µM; with U251 CNS, 2.48 µM. Also, the GI50 with HCC-2998 colon was 2.69 µM; with PC-3 prostate it was 1320 nM; in the experiment with HL-60(TB) leukemia it was 1380 nM. The TGI in the experiment with BT-549 breast is 3.14 µM; in the experiment with SK-MEL-5 melanoma, 2770 nM; in the experiment on SK-MEL-2 melanoma, 5.68 µM; with SW-620 colon, 2.42 µM; in the experiment with NCI-H460 lung it was 2.59 µM; with U251 CNS, 7.07 µM. The TGI turned out to be 7.56 µM in the experiment with HCC-2998 colon, 2.72 µM in the experiment with PC-3 prostate and 2.87 µM with HL-60(TB) leukemia.
